Assay results taken from ChEMBL document CHEMBL3988442, “University of Dundee, Small-Polar-MMV Screening Library” (2021).

System: Schistosoma mansoni
Assay: High throughput screening of compounds against Schistosoma mansoni motility
Assay type: functional
Parameters: dose or concentration left out as unconfirmed

| SMILES | Percent Effect |
| --- | --- |
| Cc1c(Br)cccc1C(=O)NC(C)CN1CCCC1=O (centres undefined) | -4.935% |
| Cn1ccnc1-c1cccc(NC(=O)NCCN2CCOCC2)c1 | -15.26% |
| COc1ncccc1C(=O)NCC1Cc2ccccc2O1 (centres undefined) | -86.67% |
| CN(C)C(=O)c1ccc2c(c1)N(C)C(CC(=O)NC(C)(C)CO)CO2 (centres undefined) | 4.699% |
| CCc1nnc2n1CC(CNCc1ccncc1)CC2 (centres undefined) | -67.25% |
| COCc1cn([C@@H]2c3ccccc3C3(CCNCC3)[C@H]2O)nn1 | -22.09% |
| COC(=O)c1ccc2ccn(CC3CCNC3)c(=O)c2c1 (centres undefined) | -40.15% |
| Cc1ccc(CC(=O)N2CCOC(c3nc(C(C)(C)C)n[nH]3)C2)cn1 (centres undefined) | 7.474% |
| COc1ccccc1[C@@H]1CN(C(=O)c2csc(C)n2)C[C@H]1C(=O)O | 18.41% |
| CC(C)c1nc(CN(C)C2CCN(CC(F)(F)F)C2)no1 (centres undefined) | -30.86% |
| CCOc1ncccc1NC(=O)c1cc(C)c(C)s1 | -34.96% |
| Cc1ccc(N2CCN(C(=O)COc3nccc(C)n3)CC2)nn1 | -46.68% |
| CN1CCN(CCCNC(=O)c2cc(Cl)c3c(c2)OCO3)CC1 | -22.9% |
| CNc1nc(C(=O)N2CCCC(c3nccn3CC3CCC3)C2)cs1 (centres undefined) | -15.23% |
| Cc1noc(C)c1CN1C(=O)[C@H]2CC[C@@H]1CN(Cc1cccnc1N)C2 | -25.95% |
| COc1ccc(NC(=O)N2CCN(c3ncccn3)CC2)cn1 | -75.2% |
| CSCCCNC(=O)Nc1cccc(-c2nccn2C)c1 | -33.04% |
| O=C(CN(Cc1cccnc1)CC1CCCO1)Nc1ccc(F)cc1 (centres undefined) | -30.42% |
| COCC(NC(=O)c1cnn(C)c1)c1cccc(C(F)(F)F)c1 (centres undefined) | -48.05% |
| COc1nc2c(cc1C(=O)N1C[C@H](N)C[C@H]1C(=O)NC(C)C)CCC2 | 37.99% |
| Cc1ccsc1[C@@H]1CCN(C(=O)CCC(=O)N2CCCCCC2)C[C@H]1O | -14.8% |
| CCC(=O)N1CCC2(CC1)c1nc[nH]c1CCN2S(C)(=O)=O | -32.51% |
| Cn1c(CN2CCN(CC3CC3)CC2)nnc1C1CCC1 | -23.98% |

| SMILES | Percent Effect |
| --- | --- |
| CC(C)C(=O)N1CCN(C(=O)c2cscn2)[C@H]2CS(=O)(=O)C[C@H]21 | -16.72% |
| COCCCC1(CO)CCCN(CCc2ccccc2)C1 (centres undefined) | -47.32% |
| CC(C)CNC(=O)NC(=O)CNc1ccccc1SCC(C)C#N (centres undefined) | -9.977% |
| OCCOc1nc(-c2ccccc2Cl)no1 | -41.46% |
| Cc1csc(N2CCN(Cc3cnc(C)s3)CC2C)n1 (centres undefined) | -30.28% |
| COc1ccc(C2CCCN2C(=O)CCNc2ncccn2)cc1 (centres undefined) | -36.49% |
| c1ccc(C2CCCN2Cc2nnnn2C2CC2)cc1 (centres undefined) | -33.61% |
| COCc1cc(NCc2cc(F)ccc2F)n2nccc2n1 | -61.56% |
| CCc1nc(C2CCCN2CC(=O)Nc2c(C)nn(C)c2C)no1 (centres undefined) | -35.66% |
| O=C(c1ccccn1)N1CCCC(c2nccn2Cc2ccncc2)C1 (centres undefined) | -73.06% |
| CCc1nnc2n1CCN(C(=O)c1csc(-c3cnn(C)c3)n1)C2 | -4.866% |
| COCC(O)CNC(=O)c1coc(COc2ccc3sc(C)nc3c2)n1 (centres undefined) | 22.1% |
| CN(CCCc1cnn(C)c1)C(=O)C1CCOC1 (centres undefined) | -54.96% |
| O=C(CCc1nccs1)N1CCCC(N2CCNC2=O)C1 (centres undefined) | -31.05% |
| Cc1nc(C)n(CC2CN(CCc3ccncc3)CCO2)n1 (centres undefined) | -26.46% |
| Cc1cc(CN2CCN(C(=O)C(C)C)[C@@H]3CS(=O)(=O)C[C@@H]32)ccc1F | 10.81% |
| O=C(Cc1cccs1)NC1CCN(c2cccc(F)c2)CC1 | -37.43% |
| O=C(CCc1cc2n(n1)CCCN(C(=O)c1ccccn1)C2)NC1CC1 | -25.84% |
| OCC1CCCN1c1cc(NCCNc2ccccn2)ncn1 (centres undefined) | -56.18% |
| Oc1cc(CCC2CCCCN2)cc(-c2ccncc2)c1 (centres undefined) | 6.025% |
| O=C(NCCn1ccc(-c2ccccn2)n1)c1ccncc1 | -46.65% |
| CN1CCN(Cc2nnc(C3CCN(CC4CC4)CC3)n2C)CC1 | -64.34% |
| CCCc1cc(NC2CCc3ncnn3C2)n2ncnc2n1 (centres undefined) | -6.308% |

| SMILES | Percent Effect |
| --- | --- |
| COCCN1C(=O)CC(N2CCN(c3ccc(OC)cc3)CC2)C1=O (centres undefined) | -42.76% |
| CCCC(C)(C)NC(=O)c1ccc(CC2CC(=O)NC2=O)cc1 (centres undefined) | -6.374% |
| CCn1c(N)nc2cc(C(=O)NCCc3sccc3C)cnc21 | -77.79% |
| O=C(CCc1cscn1)NS(=O)(=O)c1ccc2ccccc2c1 | 22.96% |
| CC(CN1CCOCC1)NCc1nncn1C1CCCCC1 (centres undefined) | 0.8698% |
| CCc1ncncc1C(=O)NCCN1CCC(C)CC1 | -31.56% |
| O=C(NCCCn1cccn1)C1(c2ccc(F)cc2)CC1 | 23.22% |
| CSCC(CCO)NC(=O)Nc1cccc(Br)c1 (centres undefined) | -21.75% |
| CCc1nnc(CN(C)c2nc(C(C)C)nc3c2cnn3C)o1 | -37.68% |
| COc1cccc(OCc2cc(C(=O)NC[C@H]3CCCN3)n[nH]2)c1 | -4.692% |
| COc1ccccc1OCC(=O)Nc1ncccc1OC(F)F | 13.82% |
| CN(C)S(=O)(=O)N1CCN(c2nccc(C(F)(F)F)n2)CC1 | -52.05% |
| O=C(NCc1ccoc1)Nc1ccc(CN2CCOC2=O)cc1 | -8.505% |
| O=C1CCC2(CCN(Cc3cc(F)cc(F)c3)CC2)CN1CCO | 4.054% |
| Cc1ccc2cc(C3(O)CCN(C(=O)CN4CCCC4)CC3)ccc2n1 | 5.836% |
| Cn1cc(CCNC(=O)NC2CCS(=O)(=O)C2)cn1 (centres undefined) | -23.41% |
| O=S(=O)(Cc1ccccc1)NCc1ccco1 | -25.54% |
| Cn1ncc2c(N3CCN(C(N)=O)CC3)nc(C3CCCC3)nc21 | -18.38% |
| CCCc1n[nH]c(C2CN(C(=O)CCCn3cccn3)CCO2)n1 (centres undefined) | -21.33% |
| CCN(CCn1cccn1)Cc1nc(-c2cccs2)oc1C | -16.9% |
| Cc1cnc(C(=O)N(CCN(C)C)Cc2ccc(Cl)cc2)cn1 | 17.37% |
| COc1ccccc1S(=O)(=O)N1CCC(Oc2cccnn2)CC1 | -19.77% |
| CCCc1n[nH]c(C2CN(CCn3cccn3)CCO2)n1 (centres undefined) | 4.257% |

| SMILES | Percent Effect |
| --- | --- |
| Cn1c(C(F)(F)F)nn(CCNC(=O)c2cnc3ccccc3n2)c1=O | -7.141% |
| Cn1cnnc1S(=O)(=O)C1CCN(S(=O)(=O)C2CC2)CC1 | -25.74% |
| CCN(c1ccc(C(=O)N2CCCC(C)C2)cc1)S(=O)(=O)CC (centres undefined) | -11.81% |
| Cc1nc(C)n(CC2CN(CC(=O)Nc3cccnc3)CCO2)n1 (centres undefined) | -4.464% |
| COc1ccc(NC(C)C(=O)N2CCN(c3ncccn3)CC2)cn1 (centres undefined) | -56.07% |
| O=C1CC2(CCN(CCO)CC2)CN1Cc1cc(F)cc(F)c1 | 8.592% |
| Cc1csc(N2CCN(Cc3ccccn3)CC2C)n1 (centres undefined) | -63.75% |
| CCN1CCCC1CN(CCN(C)C)S(=O)(=O)c1ccc(C#N)cc1 (centres undefined) | 8.845% |
| Cc1n[nH]c(C2CN(C(=O)CCc3ccsc3)CCO2)n1 (centres undefined) | -49.32% |
| C1CC1c1nsc(N2CCN(C3CC3)CC2)n1 | -51.78% |
| CN(C)C(=O)N1CCn2nc(CNC(=O)CCC(F)(F)F)cc2C1 | 2% |
| CCCN1CCC(NC(=O)c2ccc(F)cc2I)CC1 | 16.82% |
| CC(C)c1nnc2n1CC(CNCc1ccncc1)CC2 (centres undefined) | -34.29% |
| Cn1nnc2cc(C(=O)N3CCCC3Cc3ccccc3)ccc21 (centres undefined) | -37.55% |
| COc1cccc2c1OCC(C(=O)N(C)CCCc1cnn(C)c1)C2 (centres undefined) | -37.39% |
| CN(C)C(=O)c1cccc(NC(=O)N(CCO)Cc2ccsc2)c1 | -21.08% |
| O=C(CN1CCCC1Cn1cncn1)NC(C1CC1)C1CC1 (centres undefined) | -24.22% |
| Cc1cccc(N2CCC(NC(=O)CCCc3cccs3)CC2)n1 | -13.77% |
| Cc1ccccc1N1CCCN(C(=O)CCCS(N)(=O)=O)CC1 | -57.21% |
| CCc1nc(CN2CCCN(Cc3cnn(C)c3)CC2)no1 | -82.4% |
| O=S1(=O)CCCN1Cc1coc(-c2cccs2)n1 | -11.58% |
| CCc1ccccc1CN1CC[C@@H](NC(=O)c2cccnc2)[C@H](O)C1 | -49.14% |
| CCN1CCN(S(=O)(=O)c2ncn(C)c2Cl)CC1 | -72.02% |

| SMILES | Percent Effect |
| --- | --- |
| CN(C)C(=O)c1ccc2c(c1)N(C)C(CC(=O)NCc1ccno1)CO2 (centres undefined) | 0.8383% |
| CC[C@@]1(O)CCN(C(=O)c2ccc(SC)cc2)C[C@H]1O | 20.95% |
| Cc1nsc(N2CCCN(c3nc(C4CC4)ns3)CC2)n1 | -32.57% |
| CN(CCN1CCCCCC1)C(=O)c1cc(CN2CCC(O)CC2)on1 | -17.62% |
| C1CCCN(c2nc(C3CC3)ns2)CC1 | -22.51% |
| COCc1cc(NCCc2ccc(F)cc2)n2nccc2n1 | -25.55% |
| CCCNC(=O)N1CCC(Oc2cc(C)ccc2F)(C(=O)O)CC1 | 27.97% |
| CC(=O)N1CCC(C(=O)NCCN2CCCCC2)CC1 | 25.49% |
| CCC(=O)N1CCC(c2nnc(Cn3cncn3)n2C2CC2)CC1 | -42.58% |
| Cn1c(CNc2c(F)cccc2-n2cccn2)cc(=O)n(C)c1=O | -12.04% |
| CCN(CCn1cccn1)Cc1nc(-c2ccccc2F)oc1C | -13.18% |
| COCCNC(=O)Cn1nc(C(C)C)c2cnn(C(C)(C)C)c2c1=O | -20.39% |
| O=C(NC[C@@H]1CCCN1)c1cc(COc2cccc(C(F)(F)F)c2)[nH]n1 | 73.28% |
| COc1cc(C)nc(N2CCN(Cc3nccn3C)CC2)n1 | -41.68% |
| Cc1c[nH]c(CN(C)c2nc(C3CCCC3)nc3c2cnn3C)n1 | -22.17% |
| Cc1nc(-c2ccsc2)ccc1C(=O)O | -19.43% |
| CC(c1ccccc1)n1c(SCC(=O)O)nnc1-c1ccccc1Cl (centres undefined) | 15.81% |
| Cc1nc(CN2CCCC2c2nc(C(C)C)no2)cs1 (centres undefined) | -46.84% |
| Cc1n[nH]c(C)c1C1CCCN1C(=O)CNC(=O)C(C)(C)C (centres undefined) | -23.3% |
| Cc1cc(C)n(Cc2ccc(C(=O)NCCN3CCOCC3)cc2)n1 | -9.196% |
| Cc1cn(-c2ccccc2)nc1NS(=O)(=O)c1cc(C(=O)O)cs1 | -15.39% |
| CCc1nnc(CN(C)c2nc(C3CCCC3)nc3c2cnn3C)o1 | 1.111% |
